Reference: the supplement of paper PMC10627819

How the values were obtained:
Assay in all cases: fitness (endpoint OD595 vs no drug) (fraction); higher = more growth
[1] = system: S. aureus Newman
How it was run: (§1)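 At 37 °C, bacteria in TSB, LB Lennox or CY were grown in 384-well plates from a starting OD595 of 0.01. OD595 was measured every 30 min for 14 h, with the first reading used as background. Fitness is the optical density at the switch to stationary phase as a fraction of the robust mean of no-drug control wells, capped at 1.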

[2] = system: S. pneumoniae D39V
How it was run: as §1

[3] = system: B. subtilis 168
How it was run: as §1
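Also: OD595 on entry to stationary phase over no-drug wells; at most 1.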

CCCCCCCCCC(=O)N[C@@H](Cc1c[nH]c2ccccc12)C(=O)N[C@H](CC(N)=O)C(=O)N[C@@H](CC(=O)O)C(=O)N[C@@H]1C(=O)NCC(=O)N[C@@H](CCCN)C(=O)N[C@@H](CC(=O)O)C(=O)N[C@H](C)C(=O)N[C@@H](CC(=O)O)C(=O)NCC(=O)N[C@H](CO)C(=O)N[C@@H]([C@H](C)CC(=O)O)C(=O)N[C@@H](CC(=O)c2ccccc2N)C(=O)O[C@@H]1C [Daptomycin] + CC1(C)S[C@@H]2[C@H](NC(=O)Cc3ccccc3)C(=O)N2[C@H]1C(=O)O [Penicillin G]
fitness, [1]
Details | first compound 0.125 µg/mL | first compound 0.25 µg/mL | first compound 0.5 µg/mL
partner 0.0195 µg/mL | 0.926 | 0.958 | 0.925
partner 0.039 µg/mL | 0.939 | 0.942 | 0.972
partner 0.078 µg/mL | 0.961 | 0.957 | 0.915

C[C@H]1COc2c(N3CCN(C)CC3)c(F)cc3c(=O)c(C(=O)O)cn1c23 [Levofloxacin] + CO[C@@]12[C@H](COC(N)=O)C3=C(C(=O)C(C)=C(N)C3=O)N1C[C@@H]1N[C@@H]12 [Mitomycin C]
fitness, [2]
Details | first compound 0.1725 µg/mL | first compound 0.2 µg/mL | first compound 0.345 µg/mL | first compound 0.4 µg/mL | first compound 0.69 µg/mL | first compound 0.8 µg/mL
partner 0.001075 µg/mL | – | 0.883 | – | 0.777 | – | 0.422
partner 0.002 µg/mL | 0.817 | – | 0.699 | – | 0.404 | –
partner 0.00215 µg/mL | – | 0.871 | – | 0.769 | – | 0.362
partner 0.004 µg/mL | 0.782 | – | 0.687 | – | 0.355 | –
partner 0.0043 µg/mL | – | 0.78 | – | 0.699 | – | 0.331
partner 0.008 µg/mL | 0.694 | – | 0.595 | – | 0.387 | –

C[C@H]1COc2c(N3CCN(C)CC3)c(F)cc3c(=O)c(C(=O)O)cn1c23 [Levofloxacin] + CC1=C(C(=O)O)N2C(=O)[C@@H](NC(=O)[C@H](N)c3ccccc3)[C@H]2SC1 [Cephalexin]
Details | fitness
[2], first compound 0.1725 µg/mL, partner 2 µg/mL | 0.176
[2], first compound 0.1725 µg/mL, partner 4 µg/mL | 0.0529
[2], first compound 0.345 µg/mL, partner 2 µg/mL | 0.103
[2], first compound 0.345 µg/mL, partner 4 µg/mL | 0.001
[2], first compound 0.69 µg/mL, partner 1 µg/mL | 0.235
[2], first compound 0.69 µg/mL, partner 2 µg/mL | 0.0462
[2], first compound 0.69 µg/mL, partner 4 µg/mL | 0.022
[3], first compound 0.0312 µg/mL, partner 0.125 µg/mL | 0.0416
[3], first compound 0.0312 µg/mL, partner 0.25 µg/mL | 0.0347
[3], first compound 0.0312 µg/mL, partner 0.5 µg/mL | 0.036
[3], first compound 0.0625 µg/mL, partner 0.125 µg/mL | 0.0518
[3], first compound 0.0625 µg/mL, partner 0.25 µg/mL | 0.037
[3], first compound 0.0625 µg/mL, partner 0.5 µg/mL | 0.043
[3], first compound 0.125 µg/mL, partner 0.125 µg/mL | 0.0423
[3], first compound 0.125 µg/mL, partner 0.25 µg/mL | 0.0386
[3], first compound 0.125 µg/mL, partner 0.5 µg/mL | 0.0448

fitness, one replicate
Details | first compound 0.001 µg/mL | first compound 0.002 µg/mL | first compound 0.0039 µg/mL | first compound 0.2 µg/mL | first compound 0.4 µg/mL | first compound 0.8 µg/mL
[2], partner 0.125 µg/mL | – | – | – | 0.874 | 0.758 | 0.316
[2], partner 0.25 µg/mL | – | – | – | 0.91 | 0.782 | 0.354
[2], partner 0.5 µg/mL | – | – | – | 0.903 | 0.8 | 0.369
[3], partner 0.25 µg/mL | 0.969 | 0.896 | 0.836 | – | – | –
[3], partner 0.5 µg/mL | 0.991 | 0.91 | 0.838 | – | – | –
[3], partner 1 µg/mL | 0.921 | 0.919 | 0.868 | – | – | –
